Laboratory results taken from patent US20130137760A1, “GAMBOGIC AMINE, A SELECTIVE TRKA AGONIST WITH NEUROPROTECTIVE ACTIVITY” (EMORY UNIVERSITY, priority 2007, published 2013).

System: infarct volume
Test: Transient middle cerebral artery occlusion (MCAO) stroke model, infarct volume
Parameters: species or system rats
Settings: rat, in vivo
Method: To further determine the neuroprotective potential in vivo, test compounds can be tested in a transient middle cerebral artery occlusion (MCAO) stroke model in adult male rats. After 2 h MCAO followed by reperfusion, the animals receive vehicle or test compounds (2 mg/kg) 5 min prior to the onset of reperfusion.
A representative brain slice stained with TTC 24 h after MCAO in vehicle-treated and compound-treated rats can be subjected to area and volume measurements from TTC sections to indicate whether treatments with the compound substantially reduces infarct volumes in this transient ischemic model of stroke. […]
To further determine the neuroprotective potential in vivo, the gambogic amine can be tested in a transient middle cerebral artery occlusion (MCAO) stroke model in adult male rats. […] LDF (laser-Doppler flowmetry) can be measured over the ipsilateral parietal cortex. The effects of the gambogic amine on relative CBF (cerebral blood flow) can be evaluated. After filament withdrawal (120 min), relative CBF can also be measured in the vehicle-treated group and gambogic amine-treated groups, and compared with preischemic levels.
Rats can be used in a study of focal ischemia. […] Using a SurgiVet (model V3304; Waukesha, Wis., USA) pulse oximeter, blood SpO2 can be monitored and maintained at levels 90%. […]

CC(C)=CCC[C@]1(C)C=Cc2c(O)c3c(c(CC=C(C)C)c2O1)O[C@]12C(=C[C@@H]4CC1C(C)(C)O[C@@]2(C/C=C(/C)C(N)=O)C4=O)C3=O [gambogic amide]
decrease of stroke-induced infarct volume: effectively decrease
